According to ChEMBL document CHEMBL5370592, “Synthesis and Structure-Activity Relationships of a New Class of Oxadiazoles Targeting DprE1 as Antitubercular Agents” (ACS Med Chem Lett, 2023):
Converted amounts (≈) assume the structure as drawn.

Columns and labels:
[1] = system: Mycobacterium tuberculosis; test: Antitubercular activity against Mycobacterium tuberculosis H37Rv ATCC 27294 assessed as inhibition of bacterial growth cultured in Middlebrook 7H9/BSA/Tyloxapol with glucose medium for 2 weeks; format: functional; conditions: H37Rv ATCC 27294, 336 h
[2] = system: Mycobacterium tuberculosis; test: Antitubercular activity against Mycobacterium tuberculosis H37Rv ATCC 27294 assessed as inhibition of bacterial growth cultured in Middlebrook 7H9/glucose/casitone/tyloxapol medium for 2 weeks; format: functional; conditions: H37Rv ATCC 27294, 336 h
[3] = Cytotoxicity against human HepG2 cells assessed as reduction in cell viability incubated for 24 hrs in DMEM/10% FBS supplemented with glucose by CellTiter-Glo luminescent assay; format: toxicity, cell-based
[4] = Cytotoxicity against human HepG2 cells assessed as reduction in cell viability incubated for 24 hrs in DMEM/10% FBS supplemented with galactose by CellTiter-Glo luminescent assay; format: toxicity, cell-based
[5] = system: Mycobacterium tuberculosis; test: Antitubercular activity against Mycobacterium tuberculosis K10b00DS assessed as inhibition of bacterial growth incubated for 2 weeks; format: functional; conditions: 336 h
[6] = system: Mycobacterium tuberculosis; test: Antitubercular activity against Mycobacterium tuberculosis H37Rv ATCC 27294 assessed as inhibition of bacterial growth incubated for 2 weeks; format: functional; conditions: H37Rv ATCC 27294, 336 h
[7] = system: Mycobacterium tuberculosis; test: Antitubercular activity against Mycobacterium tuberculosis Erdman assessed as inhibition of bacterial growth incubated for 2 weeks; format: functional; conditions: 336 h
[8] = system: Mycobacterium tuberculosis; test: Antitubercular activity against Mycobacterium tuberculosis HN878 assessed as inhibition of bacterial growth incubated for 2 weeks; format: functional; conditions: HN878, 336 h
[9] = system: Mycobacterium tuberculosis; test: Antitubercular activity against Mycobacterium tuberculosis CDC1551 assessed as inhibition of bacterial growth incubated for 2 weeks; format: functional; conditions: CDC1551, 336 h
[10] = system: Mycobacterium tuberculosis; test: Antitubercular activity against Mycobacterium tuberculosis clinical strain K5072429 assessed as inhibition of bacterial growth incubated for 2 weeks; format: functional; conditions: K5072429, 336 h
[11] = system: Mycobacterium tuberculosis; test: Antitubercular activity against Mycobacterium tuberculosis K04b00DS assessed as inhibition of bacterial growth incubated for 2 weeks; format: functional; conditions: 336 h
[12] = system: Mycobacterium tuberculosis; test: Antitubercular activity against Mycobacterium tuberculosis K05b00DS assessed as inhibition of bacterial growth incubated for 2 weeks; format: functional; conditions: 336 h
[13] = system: Mycobacterium tuberculosis; test: Antitubercular activity against Mycobacterium tuberculosis K07b00DS assessed as inhibition of bacterial growth incubated for 2 weeks; format: functional; conditions: 336 h
[14] = system: Mycobacterium tuberculosis; test: Antitubercular activity against Mycobacterium tuberculosis K09b00DS assessed as inhibition of bacterial growth incubated for 2 weeks; format: functional; conditions: 336 h
[15] = system: Mycobacterium tuberculosis; test: Antitubercular activity against Mycobacterium tuberculosis K11b00DS assessed as inhibition of bacterial growth incubated for 2 weeks; format: functional; conditions: 336 h
[16] = system: Mycobacterium tuberculosis; test: Antitubercular activity against Mycobacterium tuberculosis K12b00DS assessed as inhibition of bacterial growth incubated for 2 weeks; format: functional; conditions: 336 h
[17] = system: Mycobacterium tuberculosis; test: Antitubercular activity against Mycobacterium tuberculosis K13b00DS assessed as inhibition of bacterial growth incubated for 2 weeks; format: functional; conditions: 336 h
[18] = system: Mycobacterium tuberculosis; test: Antitubercular activity against Mycobacterium tuberculosis K14b00DS assessed as inhibition of bacterial growth incubated for 2 weeks; format: functional; conditions: 336 h
[19] = system: Mycobacterium tuberculosis; test: Antitubercular activity against Mycobacterium tuberculosis K15b00DS assessed as inhibition of bacterial growth incubated for 2 weeks; format: functional; conditions: 336 h
[20] = system: Mycobacterium tuberculosis; test: Antitubercular activity against Mycobacterium tuberculosis K16b00DS assessed as inhibition of bacterial growth incubated for 2 weeks; format: functional; conditions: 336 h
[21] = system: Mycobacterium tuberculosis; test: Antitubercular activity against Mycobacterium tuberculosis K17b00DS assessed as inhibition of bacterial growth incubated for 2 weeks; format: functional; conditions: 336 h
[22] = system: Mycobacterium tuberculosis; test: Antitubercular activity against Mycobacterium tuberculosis K35b00DS assessed as inhibition of bacterial growth incubated for 2 weeks; format: functional; conditions: 336 h
[23] = system: Mycobacterium tuberculosis; test: Antitubercular activity against Mycobacterium tuberculosis NIH_G12 assessed as inhibition of bacterial growth incubated for 2 weeks; format: functional; conditions: NIH_G12, 336 h

Row | SMILES | MIC [1] [µM] | MIC [2] [µM] | IC50 at 24 h [3] [µM] | IC50 at 24 h [4] [µM] | also measured
1 | O=C(C1CCN(c2nnc(-c3ccccc3)o2)CC1)N1CCCCC1 | > 50 | > 50 | > 50 | > 50 | 
2 | O=C(C1CCN(c2nnc(-c3ccccc3)o2)CC1)N1CCC(Oc2ccccc2)CC1 | 4.7 (≈ 2.03 µg/mL) | 2.3 (≈ 0.995 µg/mL) | 37.5 | 37.5 | 
3 | O=C(C1CCN(c2nnc(-c3ccccc3)o2)CC1)N1CCCC(Cc2ccccc2)C1 (centres undefined) | 50 (≈ 21.5 µg/mL) | 25 (≈ 10.8 µg/mL) | > 50 | 37.5 | 
4 | CC(c1ccccc1)C1CCN(C(=O)C2CCN(c3nnc(-c4ccccc4)o3)CC2)CC1 (centres undefined) | 1.56 (≈ 0.694 µg/mL) | 0.2 (≈ 0.0889 µg/mL) | > 50 | > 50 | 
5 | O=C(NC1CCC(Cc2ccccc2)CC1)C1CCN(c2nnc(-c3ccccc3)o2)CC1 (centres undefined) | > 50 | 4.7 (≈ 2.09 µg/mL) | > 50 | > 50 | 
6 | COc1nc2ccc(Br)cc2cc1[C@@H](c1ccccc1)[C@@](O)(CCN(C)C)c1cccc2ccccc12 [BEDAQUILINE] |  |  |  |  | MIC [5]: 0.1 µM (≈ 0.0556 µg/mL); MIC [6]: 0.15 µM (≈ 0.0833 µg/mL); MIC [7]: 0.1 µM (≈ 0.0556 µg/mL); MIC [8]: 0.05 µM (≈ 0.0278 µg/mL); MIC [9]: 0.07 µM (≈ 0.0389 µg/mL); MIC [10]: 0.2 µM (≈ 0.111 µg/mL); MIC [11]: 0.04 µM (≈ 0.0222 µg/mL); MIC [12]: 0.05 µM (≈ 0.0278 µg/mL); MIC [13]: 0.15 µM (≈ 0.0833 µg/mL); MIC [14]: 0.2 µM (≈ 0.111 µg/mL); MIC [15]: 0.3 µM (≈ 0.167 µg/mL); MIC [16]: 0.04 µM (≈ 0.0222 µg/mL); MIC [17]: 0.1 µM (≈ 0.0556 µg/mL); MIC [18]: 0.6 µM (≈ 0.333 µg/mL); MIC [19]: 0.07 µM (≈ 0.0389 µg/mL); MIC [20]: 0.1 µM (≈ 0.0556 µg/mL); MIC [21]: 0.07 µM (≈ 0.0389 µg/mL); MIC [22]: 0.07 µM (≈ 0.0389 µg/mL); MIC [23]: 0.05 µM (≈ 0.0278 µg/mL)
7 | CCN(CC)C(=O)C1CCN(c2nnc(-c3ccccc3)o2)CC1 | > 50 | > 50 | > 50 | > 50 | 
8 | O=C(c1ccccc1)C1CCN(C(=O)C2CCN(c3nnc(-c4ccccc4)o3)CC2)CC1 | 9.4 (≈ 4.18 µg/mL) | 4.7 (≈ 2.09 µg/mL) | > 50 | 37.5 | 
9 | O=C(CC1CCN(c2nnc(-c3ccccc3)o2)CC1)N1CCC(Cc2ccccc2)CC1 | 12.5 (≈ 5.56 µg/mL) | 4.7 (≈ 2.09 µg/mL) | > 50 | 37.5 | 
10 | O=C(C1CCN(c2nnc(-c3ccccc3)o2)CC1)N1CCC(Cc2ccc(C(F)(F)F)cc2)CC1 | 0.3 (≈ 0.15 µg/mL) | 0.1 (≈ 0.0499 µg/mL) | > 50 | 37.5 | 
11 | O=S(=O)(C1CCN(c2nnc(-c3ccccc3)o2)CC1)N1CCC(Cc2ccccc2)CC1 | > 50 | 12.5 (≈ 5.83 µg/mL) | > 50 | 37.5 | 
12 | O=C(C1CCN(c2nnc(-c3ccccc3)s2)CC1)N1CCC(Cc2ccccc2)CC1 | 1.2 (≈ 0.536 µg/mL) | 0.3 (≈ 0.134 µg/mL) | > 50 | 37.5 | 
13 | O=C(C1CCN(c2nnc(-c3ccc(F)cc3)o2)CC1)N1CCC(Cc2ccccc2)CC1 | 1.2 (≈ 0.538 µg/mL) | 0.15 (≈ 0.0673 µg/mL) | > 50 | > 50 | 
14 | CN1CCN(C(=O)C2CCN(c3nnc(-c4ccccc4)o3)CC2)CC1 | > 50 | > 50 | > 50 | > 50 | 
15 | Cc1nnc(N2CCC(C(=O)N3CCC(Cc4ccccc4)CC3)CC2)o1 | > 50 | > 50 | > 50 | > 50 | 
16 | O=C(C1CCN(c2nnc(-c3ccccc3)o2)CC1)N1CCC(c2ccccc2)CC1 | 4.7 (≈ 1.96 µg/mL) | 2.3 (≈ 0.958 µg/mL) | > 50 | 37.5 | 
